Measurements: article PMC3986399, “Discovery of Novel Allosteric Effectors Based on the Predicted Allosteric Sites for Escherichia coli D-3-Phosphoglycerate Dehydrogenase” (PLoS ONE, 2014)
Entries after “also recorded” stand apart in the source; their conditions may differ. Like-named read-outs stand apart in the source and are kept apart here.

What was measured:
[1] = test system: PGDH from pea; details: PGDH from peas, cited from earlier work
[2] = molecular target: T1, PGDH (Escherichia coli, UniProt P0A9T0); assay: Enzyme kinetic analysis (Michaelis-Menten); format: biochemical; details: compound 0 to 120 µM
T1 construct: The PGDH coding region was ligated into the pET21a(+) vector; made in house; host or cells: E. coli BL21 (DE3)
Method: As in the competition experiments, enzyme reaction velocity vs. substrate relationships were measured at various compound concentrations. The compound concentrations used were 120, 80, 40, 24, 8, 4.8, 1.6, and 0.32 µM.
To evaluate the effects of the compounds on enzyme kinetics, Michaelis-Menten plots of PGDH incubated with different concentrations of compounds were measured. The apparent kinetic parameters kcat and Km were estimated by non-linear curve-fitting using Graphpad Prism 5.0 software, and their values are shown in Figure 6. […] The kcat of the pure enzyme was about 2.6 s^−1, which was in between the kcat values of the enzyme at the molecular concentrations of 8 µM and 24 µM.

[3] = molecular target: T1, PGDH; assay: Compound-substrate competition experiments; format: biochemical; details: for competition with the substrate: constant compound concentration, increasing α-ketoglutarate; for inhibition at 50 µM: substrate increased from 156 µM to 10 mM, compound 50 µM, read-out: percentage of inhibition with increasing substrate
Method: To investigate competition effects between the compounds and the substrate α-ketoglutarate, we performed compound-substrate competition experiments as follows:
Before α-ketoglutarate was added to start the reaction, the enzyme sample was pre-incubated with the cofactor and the compound for 6 min at 25°C. […] The cofactor NADH concentration was kept constant at 0.25 mM. […]
Serine-compound competition experiment […]
Competition experiments for analogs and the substrate
1-3 were kept at 92, 100, and 120 μM, while gradually increasing the substrate
concentration from 78 μM to 625 μM. […]

[4] = molecular target: T2, E. coli PGDH (wild type) (Escherichia coli, UniProt P0A9T0); assay: PGDH enzyme assay (NADH fluorescence, α-ketoglutarate substrate), wild type; format: biochemical; details: for inhibition at 50 µM: compound 50 µM; for maximum enzyme activity (residual activity, activation): low compound concentration, >100% = activation
T2 construct: The PGDH coding region was ligated into the pET21a(+) vector; made in house; host or cells: E. coli BL21 (DE3)
Method: (§1) To evaluate the effects of compounds on PGDH activity, compounds were first examined to have no fluorescence absorption at 456 nm, and then pre-incubated with enzyme samples in the assay buffer (20 mM tris-(hydroxymethyl) aminomethane hydrochloride (Tris-HCl), pH 7.5, 1 mM DTT, 1 mM EDTA, and 0.25 mM NADH) for 6 min at 25°C. […] Fluorescence signals were recorded for 3 min with a kinetics mode program. The cofactor concentration in the assay buffer was 0.25 mM and the substrate concentration was 5 mM [28]. IC50 or AC50 values were obtained by fitting the data to a three-parameter Hill model of the graph of log dose against percentage inhibition or activation from at least three sets of experiments. Percentages of inhibition or activation were calculated according to the following equation: [drawing 1] in which Vo and Vi represent the maximum reaction rate of the enzyme incubated without or with compounds and Vn represents the maximum degradation rate of NADH.

[5] = molecular target: T3, PGDH mutant E129AK256A (Escherichia coli, UniProt P0A9T0, E129A/K256A); assay: SPR binding site verification, site I mutant E129AK256A; details: compound 1 at 50 µM, compound 2 at 25 µM
T3 construct: The PGDH coding region was ligated into the pET21a(+) vector; made in house; host or cells: E. coli BL21 (DE3)
Method: (§2) PGDH and its mutants were immobilized on a CM5 sensor chip by using standard amine-coupling at 25°C with running buffer HBS-P (20 mM […], 0.05% surfactant P-20, pH 7.4), respectively. […] A reference flow cell was activated and blocked in the absence of PGDH. […] Regeneration was achieved by extended washing with the running buffer after each sample injection. […] In the binding site verification SPR experiments, the sensor chip surface was immobilized with WT PGDH and its mutants to a RU of 4000, respectively. The analytes, compounds 1 and 2, were injected over the chip at a fixed concentration of 50 and 25 µM, respectively.
(§3) We also tested whether compounds 1 and 2 might interact with the other allosteric site (site II) we discovered before. The key binding residue in site II, Y410 was mutated to A. The binding of these two compounds with the wild type enzyme, Y410A, and two site I mutants (F147A, E129AK256A) were tested using SPR direct binding assay. The immobilization levels for WT, Y410A, F147A and E129AK256A were kept almost the same (3506, 3792, 3756 and 3600 RU, respectively) and the concentrations of compounds 1 and 2 were kept at 50 µM and 25 µM. […] This verified that both compounds 1 and 2 bind specifically to the site I as designed.

[6] = molecular target: T1, PGDH; assay: Serine-compound competition experiment; format: biochemical; details: compound 40 µM; serine 1.6 to 200 µM
Method: Serine-compound competition experiment
Serine-compound competition experiments were did like that for compound-substrate experiments, before the reaction was started, the enzyme was pre-incubated with the mixture of serine and compound for 6 minutes. During this process, compound was kept at a constant inhibitory concentration, and the serine concentrations were changed from 1.6 to 200
μM. The concentrations of compounds 1 and 2 were selected as 40 μM. […]

[7] = molecular target: T4, PGDH mutant K152AK230A (Escherichia coli, UniProt P0A9T0, K152A/K230A); assay: PGDH enzyme assay, mutant K152AK230A; format: biochemical
T4 construct: The PGDH coding region was ligated into the pET21a(+) vector; made in house; host or cells: E. coli BL21 (DE3)
Method: as §1
(§4) All mutagenesis experiments were carried out according to the instructions of the QuikChange site-directed mutagenesis (Stratagene). The plasmid pET-21a(+)-containing wild-type (WT) PGDH was mutated to obtain the mutants E129A, S146A, F147A, K256A, K152AK230A, and E129AK256A. The DNA sequences of all mutants were verified by DNA sequencing. […]

[8] = molecular target: T5, PGDH (WT) (Escherichia coli, UniProt P0A9T0); assay: SPR direct binding to immobilized PGDH
T5 construct: The PGDH coding region was ligated into the pET21a(+) vector; made in house; host or cells: E. coli BL21 (DE3)
Method: as §2

[9] = molecular target: T6, PGDH mutant F147A (Escherichia coli, UniProt P0A9T0, F147A); assay: PGDH enzyme assay, mutant F147A; format: biochemical
T6 construct: The PGDH coding region was ligated into the pET21a(+) vector; made in house; host or cells: E. coli BL21 (DE3)
Method: as §1, §4

[10] = molecular target: T7, PGDH mutant S146A (Escherichia coli, UniProt P0A9T0, S146A); assay: PGDH enzyme assay, mutant S146A; format: biochemical
T7 construct: The PGDH coding region was ligated into the pET21a(+) vector; made in house; host or cells: E. coli BL21 (DE3)
Method: as §1, §4

[11] = molecular target: T6, PGDH mutant F147A; assay: SPR binding site verification, site I mutant F147A; details: compound 1 at 50 µM, compound 2 at 25 µM
Method: as §2, §3

[12] = molecular target: T8, PGDH mutant Y410A (Escherichia coli, UniProt P0A9T0, Y410A); assay: SPR binding site verification, site II mutant Y410A; details: compound 1 at 50 µM, compound 2 at 25 µM
T8 construct: The PGDH coding region was ligated into the pET21a(+) vector; made in house
Method: as §2, §3

[13] = molecular target: T9, PGDH mutant K256A (Escherichia coli, UniProt P0A9T0, K256A); assay: PGDH enzyme assay, mutant K256A; format: biochemical
T9 construct: The PGDH coding region was ligated into the pET21a(+) vector; made in house; host or cells: E. coli BL21 (DE3)
Method: as §1, §4

[14] = molecular target: T3, PGDH mutant E129AK256A; assay: PGDH enzyme assay, mutant E129AK256A; format: biochemical
Method: as §1, §4

[15] = molecular target: T10, PGDH mutant E129A (Escherichia coli, UniProt P0A9T0, E129A); assay: PGDH enzyme assay, mutant E129A; format: biochemical
T10 construct: The PGDH coding region was ligated into the pET21a(+) vector; made in house; host or cells: E. coli BL21 (DE3)
Method: as §1, §4

[16] = wild type PGDH, substrate 5 mM, NADH 0.25 mM, read-out: IC50

Row | Compound | effect on Km / substrate affinity of the enzyme [2] | competition with the substrate [3] | inhibition at 50 µM [3] [%] | inhibition at 50 µM ([4]; substrate 5 mM) [%] | maximum enzyme activity (residual activity, activation) ([4]; substrate 5 mM) | concentration above which the compound is an inhibitor ([4]; substrate 5 mM) | compound binding ability to E129AK256A versus WT [5] | influence on the inhibitory ability of serine [6] | IC50 [9] [µM] | compound binding ability to F147A versus WT [11] | compound binding ability to Y410A versus WT [12] | IC50 [4, 16] [µM] | other results
1 | CSCC[C@H](N)C(=O)O [L-methionine] |  |  |  |  |  |  |  |  |  |  |  |  | increase in enzyme activity ([1]; at maximal activation): four- to five; concentration of maximal activation [1]: 10 mM
2 | O=C1NC(=S)NC(=O)C1=Cc1ccc(OC(=O)c2ccc3nc(-c4ccccc4)c(-c4ccccc4)nc3c2)cc1 [Compound 1] | enhanced the substrate affinity for the enzyme | do not competitively bind to the same site | 20 to 50 | ~50 | about 140% | > 16 µM | a large decrease in compound binding ability | no significant effect; also recorded: not significantly influenced | 181 ± 26 | a large decrease in compound binding ability | retained the same extent of compound binding ability as WT |  | IC50 [4]: 34.8 ± 1.3 µM; IC50 [7]: > 200 µM; Kd [8]: 42.6 ± 2.1 µM; IC50 [10]: 175 ± 88 µM
3 | Cc1ccccc1C(=O)Nc1ccccc1C(=O)N/N=C/c1ccccc1OCc1ccccc1[N+](=O)[O-] [Compound 3] |  | percentage inhibition did not change |  |  |  |  |  |  |  |  |  | 131 ± 12 | inhibition at 130 µM ([4]; compound 130 µM, substrate 5 mM): ~50%; maximal inhibition rate ([4]; partial dose-inhibition curve due to solubility restriction): 61.9%; SPR binding ability ([8]; no reliable KD obtained): weak binding ability
4 | Cc1ccc(N2NC(=O)/C(=C/c3ccc(-c4ccc(S(=O)(=O)Nc5nccs5)cc4)o3)C2=O)cc1C [Compound 2] | enhanced the substrate affinity for the enzyme | do not competitively bind to the same site | 20 to 50 | ~50 | 163% | above 1.6 µM | a large decrease in compound binding ability | no significant effect; also recorded: not significantly influenced | 158 ± 22 | a large decrease in compound binding ability | retained the same extent of compound binding ability as WT | 58 ± 9 | IC50 [13]: > 200 µM; AC50 ([4]; fit of activation dose response curve, substrate 5 mM): 0.0347 µM; concentration at which activation starts ([4]; substrate 5 mM): about 2 nM; concentration of highest activation ([4]; substrate 5 mM): about 64 nM; Kd ([8]; SPR, 1:1 Langmuir binding model, PGDH 800 RU, read-out: KD): 19 ± 1.9 µM; IC50 [14]: > 200 µM; IC50 [15]: 99 ± 13 µM
